Test results published in US7547439B1, “Tumor rejection antigens” (Ludwig Institute for Cancer Research, priority 1998, dated 2009).
“Also recorded” adds a separate entry of the source.

Test system: LB1751-EBV cells
Experiment: Chromium release assay: lysis by CTL 447A/5 of peptide-sensitised LB1751-EBV cells
Format: cell-based, human
Details: for Lysis by CTL 447A/5 of peptide-pulsed LB1751-EBV cells pre-treated with anti-HLA-A2 mAb MA2.1: MA2.1 (1/5 dilution of hybridoma supernatant) during 51Cr-labeling, E/T 20, 4 h; for Lysis by CTL 447A/5 of LB1751-EBV cells incubated with peptide: peptide concentration as high as 10 μM
Protocol: FIG. 4. […] (A) LB1751-EBV cells pulsed with peptides derived from MAGE-A10. Chiromium-labelled autologous EBV-transformed lymphoblastoid cells LB1751-EBV were pulsed for 30 min with peptides as indicated at various concentrations before addition of CTL 447A/5 at an E/T ratio of 20. Chromium release was measured after 4 h. (B) Enhancement by mAb MA2.1 of lysis of LB1751-EBV cells pulsed with MAGE-A10 peptides. LB1751-EBV cells were pre-treated with or without anti-HLA-A2 antibody MA2.1. The pre-treatment was performed by adding mAb MA2.1 during ^51Cr-labeling. Peptide sensitisation and chromium release assay were carried out as in (A).
FIG. 5. […] LB1751-EBVcells were pre-treated with or without anti-HLA-A2 antibody MA2. 1. Ab treatment and peptide sensitisation of the cells and chromium release assay were carried out as in FIG. 4.
In the amino acid sequence corresponding to the nucleotides 547-825 there are two nonapeptides, […] (codons 183-191 in the ORF) (SEQ. ID. NO. 46) and […] (254-262) (SEQ. ID. NO. 42), which conform to the HLA-A2.1 peptide binding motif, i.e., a nona- or decapeptide with Leu or Met at position 2 and Leu, Val or Ile at its C-terminus (Rammensee, H. G., et al., 1995, Immunogenetics, 41:178-228). These two peptides and their overlapping decapeptides were synthesised on solid phase using F-moc for transient NH2-terminal protection and characterised by mass spectrometry. The peptides were >90% pure, as indicated by analytical HPLC, and used to sensitise autologous lymphoblastoid cell line LB1751-EBV in a chromium release assay as described in (Boon, T., et al., 1980, J. Exp. Med 152:1184-1193) but modified as follows. The target cells were ^51Cr-labeled for 1 h at 37° C. and then washed extensively. 1,000 target cells were then incubated in 96-well microplates in the presence of various concentrations of peptides for 30 min at 37° C. and CTLs were added at an E/T ratio of 20. Chromium release was measured after 4 h at 37° C.
Enhancement of peptide binding to the HLA-A2 molecule was achieved by incubation of target cells during ^51Cr-labeling with a ⅕ dilution of hybridoma culture supernatant of mAb MA2.1 (McMichael, A. J., et al., 1980, Hum. Immunol. 1:121-129; and Bodmer, H., et al., 1989, Nature 342:443-446).
This peptide and its overlapping decapeptide […] (codons 232-241) (SEQ. ID. NO. 45) were synthesised by the technique described above. LB1751-EVB cells incubated with either of the peptides, at a concentration of as high as 10 μM peptide, were not lysed by CTL 447A/5. […] Enhancement of peptide binding to the HLA-A2 molecule was achieved by incubation of target cells during ^51Cr-labeling with a ⅕ dilution of hybridoma culture supernatant of mAb MA2.1 (McMichael, A. J., et al., 1980, Hum. Immunol. 1: 121-129; and Bodmer, H., et al., 1989, Nature 342.443-446).

[1] = cells pulsed 30 min with peptide at various concentrations, E/T ratio 20, chromium release after 4 h, no mAb MA2.1

CMLLVFGIDV (listed as Homo sapiens) [decapeptide from MAGE-A10 (182-191)]
Lysis by CTL 447A/5 of peptide-pulsed LB1751-EBV cells pre-treated with anti-HLA-A2 mAb MA2.1: failed to confer recognition | Sensitisation of LB1751-EBV cells to lysis by CTL 447A/5 [1]: failed to confer recognition

GLYDGREHS (listed as Homo sapiens) [nonapeptide encoded by MAGE-A8 (codons 232-240)]
Lysis by CTL 447A/5 of peptide-pulsed LB1751-EBV cells pre-treated with anti-HLA-A2 mAb MA2.1: enhancement of lysis | Sensitisation of LB1751-EBV cells to lysis by CTL 447A/5 (peptide concentration 100 μM): did sensitise LB1751-EBV cells to lysis | Lysis by CTL 447A/5 of LB1751-EBV cells incubated with peptide: not lysed

GLYDGMEHLI (listed as Homo sapiens) [decapeptide encoded by MAGE-A10 (254-263)]
Lysis by CTL 447A/5 of peptide-pulsed LB1751-EBV cells pre-treated with anti-HLA-A2 mAb MA2.1: significantly increased sensitivity to lysis | Sensitisation of LB1751-EBV cells to lysis by CTL 447A/5 [1]: less efficiently

MLLVFGIDV [nonapeptide from MAGE-A10 (codons 183-191)]
Lysis by CTL 447A/5 of peptide-pulsed LB1751-EBV cells pre-treated with anti-HLA-A2 mAb MA2.1: failed to confer recognition | Sensitisation of LB1751-EBV cells to lysis by CTL 447A/5 [1]: failed to confer recognition

GLYDGREHSV (listed as Homo sapiens) [decapeptide encoded by MAGE-A8 (codons 232-241)]
Lysis by CTL 447A/5 of peptide-pulsed LB1751-EBV cells pre-treated with anti-HLA-A2 mAb MA2.1: not | Lysis by CTL 447A/5 of LB1751-EBV cells incubated with peptide: not lysed

GLYDGMEHL (listed as Homo sapiens) [nonapeptide encoded by MAGE-A10 (codons 254-262), presented by HLA-A2]
Lysis by CTL 447A/5 of peptide-pulsed LB1751-EBV cells pre-treated with anti-HLA-A2 mAb MA2.1: significantly increased sensitivity to lysis | Sensitisation of LB1751-EBV cells to lysis by CTL 447A/5 [1]: could sensitise LB1751-EBV cells to lysis; also recorded: recognises
